Measured values published in ChEMBL document CHEMBL5331107 (J Med Chem, 2023).

Experiments:
in vitro [1] = details: human, MT4 cells
Description: Selectivity index, ratio of CC50 for cytotoxicity against human MT4 cells to EC50 for antiviral activity against NNRTI-resistant HIV-1 harboring K103N and Y181C mutant infected in human MT4 cells

[2] = system: Human immunodeficiency virus 1; test: Antiviral activity against NNRTI-resistant HIV-1 harboring F227L and V106A double mutant infected in human MT4 cells assessed as protection against virus-induced cytopathic effect incubated for 5 days by MTT assay; assay type: functional, organism-based; details: Human immunodeficiency virus 1, MT4, 120 h
[3] = system: Human immunodeficiency virus 1; test: Antiviral activity against NNRTI-resistant HIV-1 harboring E138K mutant infected in human MT4 cells assessed as protection against virus-induced cytopathic effect incubated for 5 days by MTT assay; assay type: functional, organism-based; details: Human immunodeficiency virus 1, MT4, 120 h
[4] = target: Human immunodeficiency virus type 1 reverse transcriptase (Human immunodeficiency virus 1, UniProt Q72547); test: Inhibition of HIV-1 reverse transcriptase assessed as assessed as reduction of biotin-dUTP incorporation into […] incubated for 1 hrs by ELISA analysis
in vitro [5] = details: human, MT4 cells; remark: listed apart in the source
Description: Selectivity index, ratio of CC50 for cytotoxicity against human MT4 cells to EC50 for antiviral activity against NNRTI-resistant HIV-1 harboring L100I mutant infected in human MT4 cells

in vitro [6] = details: human, MT4 cells; remark: listed apart in the source
Description: Selectivity index, ratio of CC50 for cytotoxicity against human MT4 cells to EC50 for antiviral activity against NNRTI-resistant HIV-1 harboring F227L and V106A mutant infected in human MT4 cells

[7] = system: Human immunodeficiency virus 1; assay type: functional, organism-based; details: Human immunodeficiency virus 1, MT4, 120 h
in vitro [8] = details: human, MT4 cells; remark: listed apart in the source
Description: Selectivity index, ratio of CC50 for cytotoxicity against human MT4 cells to EC50 for antiviral activity against wildtype HIV-1 IIIB infected in human MT4 cells

in vitro [9] = details: human, MT4 cells; remark: listed apart in the source
Description: Selectivity index, ratio of CC50 for cytotoxicity against human MT4 cells to EC50 for antiviral activity against NNRTI-resistant HIV-1 harboring E138K mutant infected in human MT4 cells

in vitro [10] = details: human, MT4 cells; remark: listed apart in the source
Description: Selectivity index, ratio of CC50 for cytotoxicity against human MT4 cells to EC50 for antiviral activity against NNRTI-resistant HIV-1 harboring Y188L mutant infected in human MT4 cells

[11] = system: Human immunodeficiency virus 1; test: Antiviral activity against NNRTI-resistant HIV-1 harboring L100I mutant infected in human MT4 cells assessed as protection against virus-induced cytopathic effect incubated for 5 days by MTT assay; assay type: functional, organism-based; details: Human immunodeficiency virus 1, MT4, 120 h
[12] = system: Human immunodeficiency virus 1; assay type: functional, organism-based; details: Human immunodeficiency virus 1, MT4, 120 h; remark: listed apart in the source
[13] = system: Human immunodeficiency virus 1; assay type: functional, organism-based; details: Human immunodeficiency virus 1, MT4, 120 h; remark: listed apart in the source
[14] = system: Human immunodeficiency virus 1; test: Antiviral activity against NNRTI-resistant HIV-1 harboring K103N mutant infected in human MT4 cells assessed as protection against virus-induced cytopathic effect incubated for 5 days by MTT assay; assay type: functional, organism-based; details: Human immunodeficiency virus 1, MT4, 120 h
[15] = system: Human immunodeficiency virus 1; test: microbe, parasite or virus in culture; details: Human immunodeficiency virus 1, IIIB, MT4, 120 h
Description: Antiviral activity against wild type HIV-1 IIIB infected in human MT4 cells assessed as protection against virus-induced cytopathic effect incubated for 5 days by MTT assay

in vitro [16] = details: human, MT4 cells; remark: listed apart in the source
Description: Selectivity index, ratio of CC50 for cytotoxicity against human MT4 cells to EC50 for antiviral activity against NNRTI-resistant HIV-1 harboring K103N mutant infected in human MT4 cells

[17] = system: Human immunodeficiency virus 1; test: Potency index, ratio of efavirenz EC50 to test compound EC50 for antiviral activity against NNRTI-resistant HIV-1 harboring K103N mutant infected in human MT4 cells assessed as protection against virus-induced cytopathic effect incubated for 5 days by MTT assay; assay type: functional; details: time 5 day
in vitro [18] = details: human, MT4 cells; remark: listed apart in the source
Description: Selectivity index, ratio of CC50 for cytotoxicity against human MT4 cells to EC50 for antiviral activity against NNRTI-resistant HIV-1 harboring Y181C mutant infected in human MT4 cells

[19] = Cytotoxicity against human MT4 cells assessed as reduction in cell viability incubated for 5 days by MTT assay; assay type: toxicity, cell-based; details: time 5 day
[20] = Metabolic stability in human plasma assessed as half-life incubated for 120 mins by LC-MS/MS analysis; assay type: ADME, cell-free
[21] = Metabolic stability in human liver assessed as intrinsic clearance incubated for 60 mins in the presence of NADPH by LC-MS/MS analysis; assay type: ADME, tissue-based; details: read-out: CLH
[22] = Water solubility of the compound in phosphate buffer at pH 7.4; details: phosphate buffer
[23] = Metabolic stability in human liver microsomes assessed as half-life incubated for 60 mins in the presence of NADPH by LC-MS/MS analysis; assay type: ADME, Microsome; details: liver microsomes
[24] = Water solubility of the compound in phosphate buffer at pH 7.0
[25] = Metabolic stability in human plasma assessed as compound remaining incubated for 120 mins by LC-MS/MS analysis; assay type: ADME, cell-free; details: read-out: Stability
[26] = Metabolic stability in human liver microsomes assessed as intrinsic clearance incubated for 60 mins in the presence of NADPH by LC-MS/MS analysis; details: liver microsomes
[27] = Metabolic stability in human liver microsomes assessed as compound remaining measured after 60 mins in the presence of NADPH by LC-MS/MS analysis; assay type: ADME, Microsome; details: liver microsomes, read-out: Stability
hERG = hERG (Homo sapiens, UniProt Q12809); test: Inhibition of hERG expressed in CHO cells at 0.1 uM at -80 mV holding potential by manual patch-clamp electrophysiology method relative to control; assay type: toxicity, cell-based; details: CHO cells expressing hERG
hERG, sequence (Q12809 whole entry): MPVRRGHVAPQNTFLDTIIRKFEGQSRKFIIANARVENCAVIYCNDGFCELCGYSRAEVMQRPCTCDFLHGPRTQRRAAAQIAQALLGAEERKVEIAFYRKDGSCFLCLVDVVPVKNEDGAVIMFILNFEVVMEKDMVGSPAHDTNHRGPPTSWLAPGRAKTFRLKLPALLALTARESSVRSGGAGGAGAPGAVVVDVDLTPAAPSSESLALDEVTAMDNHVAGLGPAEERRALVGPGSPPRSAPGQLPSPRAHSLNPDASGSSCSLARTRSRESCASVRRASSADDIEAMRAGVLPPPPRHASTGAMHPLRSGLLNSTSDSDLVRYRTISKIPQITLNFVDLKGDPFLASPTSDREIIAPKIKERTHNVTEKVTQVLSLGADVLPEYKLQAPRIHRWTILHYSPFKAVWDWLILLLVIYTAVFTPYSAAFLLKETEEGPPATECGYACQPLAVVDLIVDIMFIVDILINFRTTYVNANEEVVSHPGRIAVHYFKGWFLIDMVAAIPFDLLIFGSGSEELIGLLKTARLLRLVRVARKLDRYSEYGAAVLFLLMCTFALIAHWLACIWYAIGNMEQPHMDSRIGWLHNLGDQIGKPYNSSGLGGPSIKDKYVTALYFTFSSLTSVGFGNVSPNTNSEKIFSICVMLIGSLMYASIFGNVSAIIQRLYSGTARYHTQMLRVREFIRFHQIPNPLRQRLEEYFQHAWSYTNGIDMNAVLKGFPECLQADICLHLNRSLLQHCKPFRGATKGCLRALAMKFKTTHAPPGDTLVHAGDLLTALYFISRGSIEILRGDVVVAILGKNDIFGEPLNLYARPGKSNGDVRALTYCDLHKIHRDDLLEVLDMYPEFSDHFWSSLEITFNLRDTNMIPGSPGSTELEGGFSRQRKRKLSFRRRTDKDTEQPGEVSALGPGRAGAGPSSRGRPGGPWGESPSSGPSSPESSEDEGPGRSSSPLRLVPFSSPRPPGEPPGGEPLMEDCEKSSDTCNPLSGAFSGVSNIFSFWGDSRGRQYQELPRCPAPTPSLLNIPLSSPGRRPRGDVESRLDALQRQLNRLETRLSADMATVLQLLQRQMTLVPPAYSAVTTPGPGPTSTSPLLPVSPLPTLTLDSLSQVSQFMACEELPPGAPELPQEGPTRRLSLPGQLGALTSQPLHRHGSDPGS

SMILES: Cc1cc(C#N)cc(C)c1Oc1nc(Nc2ccc(C#N)cc2)nc2c1CN(Cc1ccc(C(N)=O)cc1)CC2
- selectivity ratio (in vitro [1]): 1180
- EC50 [2]: 111 nM
- EC50 [3]: 13.4 nM
- IC50 [4]: 123 nM
- selectivity ratio (in vitro [5]): 1510
- selectivity ratio (in vitro [6]): 914
- EC50 [7]: 183 nM
- selectivity ratio (in vitro [8]): 15100
- selectivity ratio (in vitro [9]): 7560
- selectivity ratio (in vitro [10]): 5550
- EC50 [11]: 67 nM
- EC50 [12]: 34.2 nM
- EC50 [13]: 85.8 nM
- EC50 [14]: 7.84 nM
- EC50 [15]: 6.7 nM
- selectivity ratio (in vitro [16]): 12900
- Ratio EC50 [17]: 17
- selectivity ratio (in vitro [18]): 2960
- CC50 at 120 h [19]: 101000 nM

SMILES: Cc1cc(C#N)cc(C)c1Oc1nc(Nc2ccc(C#N)cc2)nc(N)c1Br [ETRAVIRINE]
- half-life [20]: > 4.82 h
- CLint scaled [21]: 19 mL/min/kg
- solubility [22]: < 1 µg/mL
- half-life [23]: 1.09 h
- solubility [24]: < 1 µg/mL
- EC50 [7]: 32.1 nM
- remaining at 2 h [25]: 83.2%
- microsomal CLint at 1 h [26]: 21.2 µL/min/mg
- EC50 [13]: 66.7 nM
- remaining at 1 h [27]: 50.2%
- EC50 [14]: 3.95 nM
- CC50 at 120 h [19]: > 4610 nM

SMILES: COc1cc(N)c(Cl)cc1C(=O)NC1CCN(CCCOc2ccc(F)cc2)CC1OC (configuration not stated) [CISAPRIDE]
- inhibition at 0.1 µM (hERG): 64%
